Results as given in patent US10633419B2, “Immunomodulators” (BRISTOL-MYERS SQUIBB COMPANY, priority 2014, dated 2020).
Starred links: 1 amine or outer side, 2 acyl side, 3 side chain; linkers in the order of their positions; H or OH if unused. Positions of bridges follow the written chain, without caps; N, C: chain ends. Non-standard residues stand in square brackets, D forms with d. Residues, ends and D or L forms follow the SMILES beside them. Groups on a side chain read outwards from the residue. *: point of attachment. X6 = O=C(O)CCCCCCCCCCCCCCCCC(=O)N[C@@H](CCC(=O)NCCCOCCOCCOCCCN*)C(=O)O; X13 = O=C(O)CCCCCCCCCCCCCCC(=O)N[C@@H](CCC(=O)NCCCOCCOCCOCCCN*)C(=O)O; Trp(1-CH2COOH) = N[C@@H](Cc1cn(CC(=O)O)c2ccccc12)C(=O)O; X23 = O=C(CCCCOCCOCCOCCCN[*:3])C[C@H](N[*:1])C(=O)[*:2]; X10 = O=C(O)CCCCCCCCCCCCCCC(=O)N[C@@H](CN*)C(=O)O; C16 diacid = O=C(O)CCCCCCCCCCCCCCC(=O)*; γGlu = O=C(O)[C@H](CCC(=O)[*:2])N[*:1]; d(cisHyp) = O=C(O)[C@H]1C[C@@H](O)CN1; βAsp = O=C(O)[C@H](CC(=O)[*:2])N[*:1]; PEG6 = NCCOCCOCCOCCOCCOCCOCCC(=O)O; NMeNle = CCCC[C@H](NC)C(=O)O; NMeA = CN[C@@H](C)C(=O)O; Dab = NCC[C@H](N)C(=O)O; Dap = NC[C@H](N)C(=O)O

molecular target: T1, PD-L1 (Homo sapiens, UniProt Q9NZQ7); test: PD-1/PD-L1 Homogenous Time-Resolved Fluorescence (HTRF) binding assay (PD-1-Ig/PD-L1-His); details: inhibition of PD-1-Ig binding to PD-L1-TVMV-His; value given as range class; read-out: HTRF IC50
T1 construct: hPDL1(19-239)-TVMV-His; made in house; host or cells: HEK293T
Summary of the method: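 Inhibitors pre-incubated 15 min with PD-L1-His (10 nM final), then PD-1-Ig (20 nM final) added for 15 min in dPBS/0.1% BSA/0.05% Tween-20. Eu-cryptate anti-Ig (1 nM) and APC anti-His (20 nM) added, 30 min equilibration, 665/620 nm HTRF ratio read.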

T1 sequence (Q9NZQ7 with tags, fused parts or gaps): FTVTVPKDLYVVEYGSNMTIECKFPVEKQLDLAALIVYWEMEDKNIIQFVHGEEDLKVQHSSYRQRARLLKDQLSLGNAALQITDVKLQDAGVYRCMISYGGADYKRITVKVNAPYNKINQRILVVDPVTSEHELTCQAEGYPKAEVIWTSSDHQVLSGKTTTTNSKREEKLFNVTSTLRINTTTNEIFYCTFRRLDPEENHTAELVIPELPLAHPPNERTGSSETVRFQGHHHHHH

Row | Structure (SMILES) | IC50
1 | CCCC[C@H]1C(=O)N(C)[C@@H](CCCC)C(=O)N[C@@H](CC(C)C)C(=O)N[C@H](C(=O)NCC(=O)N[C@@H](CC(=O)CCCCOCCOCCOCCCNC(=O)CC[C@H](NC(=O)CCCCCCCCCCCCCCC(=O)O)C(=O)O)C(=O)O)CSCC(=O)N[C@@H](Cc2ccc(O)cc2)C(=O)N(C)[C@@H](C)C(=O)N[C@@H](CC(N)=O)C(=O)N2CCC[C@H]2C(=O)N[C@@H](CN)C(=O)N[C@@H](CC(C)C)C(=O)N2C[C@H](O)C[C@@H]2C(=O)N[C@@H](Cc2c[nH]c3ccccc23)C(=O)N[C@@H](CCN)C(=O)N[C@@H](Cc2cn(CC(=O)O)c3ccccc23)C(=O)N1C [Example 11158] ({CH2CO}-Y[NMeA]NP[Dap]L[d(cisHyp)]W[Dab][Trp(1-CH2COOH)][NMeNle][NMeNle]LCG[X23]([γGlu-C16 diacid])-OH; thioether N-14) | 10 to 99 nM
2 | CCCC[C@H]1C(=O)N(C)[C@@H](CCCC)C(=O)N[C@@H](CC(C)C)C(=O)N[C@H](C(=O)NCC(=O)N[C@@H](CCC(=O)NCCCOCCOCCOCCCNC(=O)CC[C@H](NC(=O)CCCCCCCCCCCCCCC(=O)O)C(=O)O)C(=O)O)CSCC(=O)N[C@@H](Cc2ccc(O)cc2)C(=O)N(C)[C@@H](C)C(=O)N[C@@H](CC(N)=O)C(=O)N2CCC[C@H]2C(=O)N[C@@H](CN)C(=O)N[C@@H](CC(C)C)C(=O)N2C[C@H](O)C[C@@H]2C(=O)N[C@@H](Cc2c[nH]c3ccccc23)C(=O)N[C@@H](CCN)C(=O)N[C@@H](Cc2cn(CC(=O)O)c3ccccc23)C(=O)N1C [Example 11159] ({CH2CO}-Y[NMeA]NP[Dap]L[d(cisHyp)]W[Dab][Trp(1-CH2COOH)][NMeNle][NMeNle]LCGE(X13)-OH; thioether N-14) | 10 to 99 nM
3 | CCCC[C@H]1C(=O)N(C)[C@@H](CCCC)C(=O)N[C@@H](CC(C)C)C(=O)N[C@H](C(=O)NCC(=O)N[C@@H](CC(=O)NCCCOCCOCCOCCCNC(=O)CC[C@H](NC(=O)CCCCCCCCCCCCCCCCC(=O)O)C(=O)O)C(=O)O)CSCC(=O)N[C@@H](Cc2ccc(O)cc2)C(=O)N(C)[C@@H](C)C(=O)N[C@@H](CC(N)=O)C(=O)N2CCC[C@H]2C(=O)N[C@@H](CN)C(=O)N[C@@H](CC(C)C)C(=O)N2C[C@H](O)C[C@@H]2C(=O)N[C@@H](Cc2c[nH]c3ccccc23)C(=O)N[C@@H](CCN)C(=O)N[C@@H](Cc2cn(CC(=O)O)c3ccccc23)C(=O)N1C [Example 11160] ({CH2CO}-Y[NMeA]NP[Dap]L[d(cisHyp)]W[Dab][Trp(1-CH2COOH)][NMeNle][NMeNle]LCGD(X6)-OH; thioether N-14) | 100 to 1600 nM
4 | CCCC[C@H]1C(=O)N(C)[C@@H](CCCC)C(=O)N[C@@H](CC(C)C)C(=O)N[C@H](C(=O)NCCCOCCOCCOCCCNC(=O)CC[C@H](NC(=O)CCCCCCCCCCCCCCC(=O)O)C(=O)O)CSCC(=O)N[C@@H](Cc2ccc(O)cc2)C(=O)N(C)[C@@H](C)C(=O)N[C@@H](CC(N)=O)C(=O)N2CCC[C@H]2C(=O)N[C@@H](CN)C(=O)N[C@@H](CC(C)C)C(=O)N2C[C@H](O)C[C@@H]2C(=O)N[C@@H](Cc2c[nH]c3ccccc23)C(=O)N[C@@H](CCN)C(=O)N[C@@H](Cc2cn(CC(=O)O)c3ccccc23)C(=O)N1C [Example 11161] ({CH2CO}-Y[NMeA]NP[Dap]L[d(cisHyp)]W[Dab][Trp(1-CH2COOH)][NMeNle][NMeNle]LC-X13; thioether N-14) | 100 to 1600 nM
5 | CCCC[C@H]1C(=O)N(C)[C@@H](CCCC)C(=O)N[C@@H](CC(C)C)C(=O)N[C@H](C(=O)NCC(=O)N[C@@H](CC(=O)O)C(=O)NCCCOCCOCCOCCCNC(=O)CC[C@H](NC(=O)CCCCCCCCCCCCCCC(=O)O)C(=O)O)CSCC(=O)N[C@@H](Cc2ccc(O)cc2)C(=O)N(C)[C@@H](C)C(=O)N[C@@H](CC(N)=O)C(=O)N2CCC[C@H]2C(=O)N[C@@H](CN)C(=O)N[C@@H](CC(C)C)C(=O)N2C[C@H](O)C[C@@H]2C(=O)N[C@@H](Cc2c[nH]c3ccccc23)C(=O)N[C@@H](CCN)C(=O)N[C@@H](Cc2cn(CC(=O)O)c3ccccc23)C(=O)N1C [Example 11162] ({CH2CO}-Y[NMeA]NP[Dap]L[d(cisHyp)]W[Dab][Trp(1-CH2COOH)][NMeNle][NMeNle]LCGD-X13; thioether N-14) | 100 to 1600 nM
6 | CCCC[C@H]1C(=O)N(C)[C@@H](CCCC)C(=O)N[C@@H](CC(C)C)C(=O)N[C@H](C(=O)NCC(=O)N[C@@H](CCC(=O)NCCCOCCOCCOCCCNC(=O)CC[C@H](NC(=O)CCCCCCCCCCCCCCCCC(=O)O)C(=O)O)C(=O)O)CSCC(=O)N[C@@H](Cc2ccc(O)cc2)C(=O)N(C)[C@@H](C)C(=O)N[C@@H](CC(N)=O)C(=O)N2CCC[C@H]2C(=O)N[C@@H](CN)C(=O)N[C@@H](CC(C)C)C(=O)N2C[C@H](O)C[C@@H]2C(=O)N[C@@H](Cc2c[nH]c3ccccc23)C(=O)N[C@@H](CCN)C(=O)N[C@@H](Cc2cn(CC(=O)O)c3ccccc23)C(=O)N1C [Example 11163] ({CH2CO}-Y[NMeA]NP[Dap]L[d(cisHyp)]W[Dab][Trp(1-CH2COOH)][NMeNle][NMeNle]LCGE(X6)-OH; thioether N-14) | 0.3 to 9.9 nM

The remaining lines, values ahead:

Row | IC50 | Structure (SMILES)
7 | 0.3 to 9.9 nM | CCCC[C@H]1C(=O)N(C)[C@@H](CCCC)C(=O)N[C@@H](CC(C)C)C(=O)N[C@H](C(=O)NCC(=O)N[C@@H](CC(=O)NCCOCCOCCOCCOCCOCCOCCC(=O)NC[C@H](NC(=O)CCCCCCCCCCCCCCC(=O)O)C(=O)O)C(=O)O)CSCC(=O)N[C@@H](Cc2ccc(O)cc2)C(=O)N(C)[C@@H](C)C(=O)N[C@@H](CC(N)=O)C(=O)N2CCC[C@H]2C(=O)N[C@@H](CN)C(=O)N[C@@H](CC(C)C)C(=O)N2C[C@H](O)C[C@@H]2C(=O)N[C@@H](Cc2c[nH]c3ccccc23)C(=O)N[C@@H](CCN)C(=O)N[C@@H](Cc2cn(CC(=O)O)c3ccccc23)C(=O)N1C [Example 11164] ({CH2CO}-Y[NMeA]NP[Dap]L[d(cisHyp)]W[Dab][Trp(1-CH2COOH)][NMeNle][NMeNle]LCG[βAsp][PEG6]-X10; thioether N-14)
8 | 0.3 to 9.9 nM | CCCC[C@H]1C(=O)N(C)[C@@H](CCCC)C(=O)N[C@@H](CC(C)C)C(=O)N[C@H](C(=O)NCC(=O)N[C@@H](CCC(=O)NCCOCCOCCOCCOCCOCCOCCC(=O)NC[C@H](NC(=O)CCCCCCCCCCCCCCC(=O)O)C(=O)O)C(=O)O)CSCC(=O)N[C@@H](Cc2ccc(O)cc2)C(=O)N(C)[C@@H](C)C(=O)N[C@@H](CC(N)=O)C(=O)N2CCC[C@H]2C(=O)N[C@@H](CN)C(=O)N[C@@H](CC(C)C)C(=O)N2C[C@H](O)C[C@@H]2C(=O)N[C@@H](Cc2c[nH]c3ccccc23)C(=O)N[C@@H](CCN)C(=O)N[C@@H](Cc2cn(CC(=O)O)c3ccccc23)C(=O)N1C [Example 11165] ({CH2CO}-Y[NMeA]NP[Dap]L[d(cisHyp)]W[Dab][Trp(1-CH2COOH)][NMeNle][NMeNle]LCG[γGlu][PEG6]-X10; thioether N-14)
9 | 100 to 1600 nM | CCCC[C@H]1C(=O)N(C)[C@@H](CCCC)C(=O)N[C@@H](CC(C)C)C(=O)N[C@H](C(=O)NCC(=O)N[C@@H](CC(=O)O)C(=O)NCCCOCCOCCOCCCNC(=O)CC[C@H](NC(=O)CCCCCCCCCCCCCCCCC(=O)O)C(=O)O)CSCC(=O)N[C@@H](Cc2ccc(O)cc2)C(=O)N(C)[C@@H](C)C(=O)N[C@@H](CC(N)=O)C(=O)N2CCC[C@H]2C(=O)N[C@@H](CN)C(=O)N[C@@H](CC(C)C)C(=O)N2C[C@H](O)C[C@@H]2C(=O)N[C@@H](Cc2c[nH]c3ccccc23)C(=O)N[C@@H](CCN)C(=O)N[C@@H](Cc2cn(CC(=O)O)c3ccccc23)C(=O)N1C [Example 11166] ({CH2CO}-Y[NMeA]NP[Dap]L[d(cisHyp)]W[Dab][Trp(1-CH2COOH)][NMeNle][NMeNle]LCGD-X6; thioether N-14)
